Patent US5079358A, “6H-pyrazolo-[4,5,1-d,e]acridin-6-one derivatives having anit-tumor activity” (Kyowa Hakko Kogyo Co., Ltd., priority 1988, dated 1992)
Converted amounts (≈) assume the structure as drawn. Read-outs that look alike come from different tables or passages of the source.

How the values were obtained:
[1] = test system: human cancer cells (HeLaS3); experiment: Inhibitory effect on growth of human cancer cells (HeLaS3); assay type: cell-based; conditions: Neutral Red staining, 550 nm
Experimental: Inhibitory effect on growth of human cancer cells (HeLaS3):
HeLaS, cells were suspended in a medium comprising MEM medium (Nissui Pharmaceutical Co., Ltd.) and 2 mM glutamine (hereinafter referred to as Medium A) to a concentration of 3×10^4 cells/ml. The cell suspension thus prepared was put into wells of a 96-well microtiter plate in an amount of 0.1 ml/well. The cells on the plate were incubated in a CO2 -incubater at 37° C. for 20 hours, and 0.05 ml of a sample containing a test compound and appropriately diluted with Medium A was added to each well. The cells were further incubated in the CO2 -incubater at 37° C. for 72 hours. After the culture supernatant was removed, a medium comprising Medium A and 0.02% Neutral Red was added to the residue in an amount of 0.1 ml/well, followed by incubation at 37° C. for one hour in the CO2 -incubater, whereby the cells were stained. The culture supernatant was removed and the residue was washed once with physiological saline solution. The pigment was extracted with 0.001 N-HCl/30%-ethanol, and the absorbance was determined at 550 nm with a microplate reader. The absorbance determined for intact cells was compared with that for the cells treated with the test compound of a known concentration, and the concentration of the test compound for inhibiting 50% growth of the cells (IC50) was calculated.

P388 ascites tumor = experiment: Effect on P388 ascites tumor (increased life span); assay type: in vivo; conditions: intraperitoneal, 24 hours after implantation, male CDF1 mouse
Experimental: Effect on P388 ascites tumor:
P388 tumor cells (10^6 cells) were implanted intraperitoneally into a DBA/2 mouse and the cells were collected from the ascitic fluid of the animal 7 days after the implantation. The cells were ashed once with sterilized physiological saline solution and then suspended in a sterilized physiological saline solution to prepare a cell suspension containing 5×10^6 cells/ml. The suspension (0.2 ml) was intraperitoneally inoculated into a male CDF1 mouse aged 6 weeks. A test compound was dissolved in physiological saline solution and intraperitoneally administered to the animal 24 hours after implantation of the tumor cells. One test group comprised 5 mice. The mean survival time (days) of a test group which received a test compound at a specified concentration was calculated as T from survival days of animals in the group. ON the other hand, the mean survival time (days) of the non-administered group (C) was obtained in the same manner, and the increased life span (ILS %) was calculated as [(T-C)/C]×100 (%).

[2] = Homo sapiens, HeLa S3, 72 hours at 37° C., read-out: IC50

| IC50 [1, 2] [µg/mL] | Structure (SMILES) | also measured |
| --- | --- | --- |
| 2.5 (≈ 7.48 µM) | CN(C)CCNC(=O)c1nn2c3ccccc3c(=O)c3cccc1c32 [Compound 3, 2-(2-Dimethylaminoethyl)aminocarbonyl-6H-pyrazolo[4,5,1-d,e]acridin-6-one] | – |
| 2.98 (≈ 8.18 µM) | COc1cccc2c1c(=O)c1cccc3c(C(=O)NCCN(C)C)nn2c31 [Compound 4, 7-Methoxy-2-(2-dimethylaminoethyl)aminocarbonyl-6H-pyrazolo[4,5,1-d,e]acridin-6-one] | – |
| 7.2 (≈ 19.1 µM) | O=C(NCCN1CCOCC1)c1nn2c3ccccc3c(=O)c3cccc1c32 [Compound 5, 2-(2-Morpholinoethyl)aminocarbonyl-6H-pyrazolo[4,5,1-d,e]acridin-6-one] | – |
| 8.89 (≈ 26.4 µM) | O=c1c2ccccc2n2nc(CN(CCO)CCO)c3cccc1c32 [Compound 7, 2-Bis(2-hydroxyethyl)aminomethyl-6H-pyrazolo[4,5,1-d,e]acridin-6-one] | – |
| 4.9 (≈ 13.5 µM) | O=c1c2ccccc2n2nc(CNCCN3CCOCC3)c3cccc1c32 [Compound 8, 2-(2-Morpholinoethyl)aminomethyl-6H-pyrazolo[4,5,1-d,e]acridin-6-one] | – |
| – | O=c1c2ccccc2n2nc(CN(CCCl)CCCl)c3cccc1c32 [Compound 9, 2-Bis(2-chloroethyl)aminomethyl-6H-pyrazolo[4,5,1-d,e]acridin-6-one] | IC50 ([1]; 72 hours at 37° C.): 0.92 µg/mL (≈ 2.46 µM); ILS (%) (P388 ascites tumor; dose 18.8 mg/kg): 28% |
| 2.16 (≈ 8.67 µM) | Cc1nn2c3ccccc3c(=O)c3c(N)ccc1c32 [Compound 11, 5-Amino-2-methyl-6H-pyrazolo[4,5,1-d,e]acridin-6-one] | – |
| 0.71 (≈ 2.31 µM) | NCCNCc1nn2c3ccccc3c(=O)c3c(N)ccc1c32 [Compound 15, 5-Amino-2-(2-aminoethyl]aminomethyl-6H-pyrazolo[4,5,1-d,e]acridin-6-one] | – |
| 0.87 (≈ 2.48 µM) | Nc1ccc2c(CNCCNCCO)nn3c4ccccc4c(=O)c1c23 [Compound 16, 5-Amino-2-[2-(2-hydroxyethylamino)ethyl]aminomethyl-6H-[4,5,1-d,e]acridin-6-one] | – |
| 1.96 (≈ 5.19 µM) | Nc1ccc2c(CNCCN3CCOCC3)nn3c4ccccc4c(=O)c1c23 [Compound 17, 5-Amino-2-(2-morpholinoethyl)aminomethyl-6H-[4,5,1-d,e]-acridin-6-one] | – |
| – | NCCNCc1nn2c3ccccc3c(=O)c3c(NCCN)ccc1c32 [Compound 21, 5-(2-Aminoethyl)amino-2-(2-aminoethyl)aminomethyl-6H-pyrazolo[4,5,1-d,e]acridin-6-one] | ILS at 37.5 mg/kg (P388 ascites tumor; P388, ip, dose 37.5 mg/kg): 50% |
| 0.078 (≈ 0.206 µM) | NCCCNCc1nn2c3ccccc3c(=O)c3c(NCCCN)ccc1c32 [Compound 22, 5-(3-Aminopropyl)amino-2-(3-aminopropyl)aminomethyl-6H-pyrazolo[4,5,1-d,e]acridin-6-one] | ILS at 25 mg/kg (P388 ascites tumor; P388, ip): 52% |
| – | CN(C)CCNCc1nn2c3ccccc3c(=O)c3c(NCCN(C)C)ccc1c32 [Compound 23, 5-(2-Dimethylaminoethyl)amino-2-(2-dimethylaminoethyl)aminomethyl-6H-pyrazolo[4,5,1-d,e]acridin-6-one] | ILS at 50 mg/kg (P388 ascites tumor; P388, ip): 46% |
| – | COc1cccc2c1c(=O)c1c(NCCN)ccc3c(CNCCN)nn2c31 [Compound 25, 5-(2-Aminoethyl)amino-2-(2-aminoethyl)aminomethyl-7-methoxy-6H-pyrazolo[4,5,1-d,e]acridin-6-one] | ILS at 25 mg/kg (P388 ascites tumor; P388, ip): 39% |
| 0.22 (≈ 0.539 µM) | COc1cccc2c1c(=O)c1c(NCCCN)ccc3c(CNCCCN)nn2c31 [Compound 26, 5-(3-Aminopropyl)amino-2-(3-aminopropyl)aminomethyl-7-methoxy-6H-pyrazolo[4,5,1-d,e]acridin-6-one] | ILS at 25 mg/kg (P388 ascites tumor; P388, ip): 28% |
| 0.014 (≈ 0.0355 µM) | NCCCNCc1nn2c3cccc(O)c3c(=O)c3c(NCCCN)ccc1c32 [Compound 29, 5-(3-Aminopropyl)amino-2-(3-aminopropyl)aminomethyl-7-hydroxy-6H-pyrazolo[4,5,1-d,e]acridin-6-one] | ILS at 12.5 mg/kg (P388 ascites tumor; P388, ip): > 121% |

| IC50 [1, 2] [µg/mL] | Structure (SMILES) | also measured |
| --- | --- | --- |
| – | CN(C)CCNCc1nn2c3cccc(O)c3c(=O)c3c(NCCN(C)C)ccc1c32 [Compound 30, 5-(2-Dimethylaminoethyl)amino-2-(2-dimethylaminoethyl)aminomethyl-7-hydroxy-6H-pyrazolo[4,5,1-d,e]acridin-6-one] | ILS at 50 mg/kg (P388 ascites tumor; P388, ip): 61% |
| 1.16 (≈ 2.85 µM) | CNCCCNCc1nn2c3ccccc3c(=O)c3c(NCCCNC)ccc1c32 [Compound 32, 5-(3-Methylaminopropyl)amino-2-(3-methylaminopropyl)aminomethyl-6H-pyrazolo[4,5,1-d,e]acridin-6-one] | – |
| 2.69 (≈ 7.11 µM) | CNCCNCc1nn2c3ccccc3c(=O)c3c(NCCNC)ccc1c32 [Compound 33, 5-(2-Methylaminoethyl)amino-2-(2-methylaminoethyl)aminomethyl-6H-pyrazolo[4,5,1-d,e]acridin-6-one] | – |
| 1.72 (≈ 4.23 µM) | CCNCCNCc1nn2c3ccccc3c(=O)c3c(NCCNCC)ccc1c32 [Compound 34, 5-(2-Ethylaminoethyl)amino-2-(2-ethylaminoethyl)aminomethyl-6H-pyrazolo[4,5,1-d,e]acridin-6-one] | – |
| 3.37 (≈ 6.87 µM) | O=c1c2ccccc2n2nc(CNCCN3CCOCC3)c3ccc(NCCN4CCOCC4)c1c32 [Compound 35, 5-(2-Morpholinoethyl)amino-2-(2-morpholinoethyl)aminomethyl-6H-pyrazolo[4,5,1-d,e]acridin-6-one] | – |
| 3.1 (≈ 6.7 µM) | CCN(CC)CCNCc1nn2c3ccccc3c(=O)c3c(NCCN(CC)CC)ccc1c32 [Compound 36, 5-(2-Diethylaminoethyl)amino-2-(2-diethylaminoethyl)aminomethyl-6H-pyrazolo[4,5,1-d,e]acridin-6-one] | – |
| 2.11 (≈ 5.19 µM) | NCCCCNCc1nn2c3ccccc3c(=O)c3c(NCCCCN)ccc1c32 [Compound 37, 5-(4-Aminobutyl)amino-2-(4-aminobutyl)aminomethyl-6H-pyrazolo[4,5,1-d,e]acridin-6-one] | – |
| 2.89 (≈ 7.64 µM) | CNCCNc1ccc2c(CN(C)CCN)nn3c4ccccc4c(=O)c1c23 [Compound 38, 2-[N-(2-aminoethyl)-N-methyl]aminomethyl-5-(2-methylaminoethyl)amino-6H-pyrazolo[4,5,1-d,e]acridin-6-one] | – |
| 8.33 (≈ 19.2 µM) | CN(C)CCCNCc1nn2c3ccccc3c(=O)c3c(NCCCN(C)C)ccc1c32 [Compound 39, 5-(3-Dimethylaminopropyl)amino-2-(3-dimethylaminopropyl)aminomethyl-6H-pyrazolo[4,5,1-d,e]acridin-6-one] | – |
| 0.12 (≈ 0.274 µM) | CN(C)CCNCc1nn2c3cccc(O)c3c(=O)c3c(NCCNCCO)ccc1c32 [Compound 42] | – |
| – | NCCNc1ccc2c(CNCCSCCO)nn3c4cccc(O)c4c(=O)c1c23 [Compound 59, 5-(2-Aminoethyl)amino-7-hydroxy-2-[2-(2-hydroxyethylthio)ethyl]aminomethyl-6H-pyrazolo[4,5,1-d,e]acridin-6-one] | ILS at 12.5 mg/kg (P388 ascites tumor; P388, ip): > 134% |
| 0.0023 (≈ 0.00559 µM) | NCCNc1ccc2c(CNCCOCCO)nn3c4cccc(O)c4c(=O)c1c23 [Compound 62, 5-(2-Aminoethyl)amino-7-hydroxy-2-[2-(2-hydroxyethyloxy)ethyl]aminomethyl-6H-pyrazolo[4,5,1-d,e]acridin-6-one] | – |
| – | O=c1c2c(O)cccc2n2nc(CNCCOCCO)c3ccc(NCCNCCO)c1c32 [Compound 66, 7-Hydroxy-5-[2-(2-hydroxyethylamino)ethyl]amino-2-[2-(2-hydroxyethyloxy)ethyl]aminomethyl-6H-pyrazolo[4,5,1-d,e]acridin-6-one] | ILS at 12.5 mg/kg (P388 ascites tumor; P388, ip): > 133% |
| – | O=c1c2c(O)cccc2n2nc(CNCCO)c3ccc(Br)c1c32 [Compound 67, 5-Bromo-7-hydroxy-2-(2-hydroxyethyl)aminomethyl-6H-pyrazolo[4,5,1-d,e]acridin-6-one] | ILS at 75 mg/kg (P388 ascites tumor; P388, ip, dose 75 mg/kg): 31% |
| – | CN(C)CCCNCc1nn2c3cccc(O)c3c(=O)c3c(NCCCN(C)C)ccc1c32 [Compound 70, 5-(3-Dimethylaminopropyl)amino-2-(3-dimethylaminopropyl)aminomethyl-7-hydroxy-6H-pyrazolo[4,5,1-d,e]acridin-6-one] | ILS at 12.5 mg/kg (P388 ascites tumor; P388, ip): > 112% |
| – | CO[C@@]12[C@H](COC(N)=O)C3=C(C(=O)C(C)=C(N)C3=O)N1C[C@@H]1N[C@@H]12 [Mitomycin C, reference compound] | ILS at 4 mg/kg (P388 ascites tumor; P388, ip, dose 4-6 mg/kg): 57 to 67% |

| Structure (SMILES) | IC50 [1, 2] [µg/mL] | also measured |
| --- | --- | --- |
| COc1cccc2c1C(=O)c1c(O)c3c(c(O)c1C2=O)C[C@@](O)(C(=O)CO)C[C@@H]3O[C@H]1C[C@H](N)[C@H](O)[C@H](C)O1 [Adriamycin, reference compound] | 0.009 to 0.05 (≈ 0.0166 to 0.092 µM) | – |
